Laboratory results: US9580437B2, “Triazolopyrimidine compounds and uses thereof” (Novartis AG, priority 2014, dated 2017)

Legend:
EED (1-441)-His protein = EED (1-441)-His protein (Homo sapiens (Human), UniProt O75530); test: EED-H3K27Me3 peptide competition binding assay by AlphaScreen; settings: read-out: (a) IC50 EED Alphascreen binding Qualified
Text: EED-H3K27Me3 peptide competition binding assay by AlphaScreen (α-screen)

[1] = biological target: wild type PRC2 (wtPRC2) complex (Homo sapiens (Human), UniProt O75530); test: EED LC-MS assay; assay type: biochemical; settings: read-out: (b) IC50 EED LC-MS Qualified
Description: A 6 μL solution of 3 μM of the peptide substrate H3K27Me0 (histone H3[21-44]-biotin) in reaction buffer was added to initiate each reaction. […] ELISA (H3K27 Methylation) Assay

Chain of EED (1-441)-His protein (O75530 whole entry): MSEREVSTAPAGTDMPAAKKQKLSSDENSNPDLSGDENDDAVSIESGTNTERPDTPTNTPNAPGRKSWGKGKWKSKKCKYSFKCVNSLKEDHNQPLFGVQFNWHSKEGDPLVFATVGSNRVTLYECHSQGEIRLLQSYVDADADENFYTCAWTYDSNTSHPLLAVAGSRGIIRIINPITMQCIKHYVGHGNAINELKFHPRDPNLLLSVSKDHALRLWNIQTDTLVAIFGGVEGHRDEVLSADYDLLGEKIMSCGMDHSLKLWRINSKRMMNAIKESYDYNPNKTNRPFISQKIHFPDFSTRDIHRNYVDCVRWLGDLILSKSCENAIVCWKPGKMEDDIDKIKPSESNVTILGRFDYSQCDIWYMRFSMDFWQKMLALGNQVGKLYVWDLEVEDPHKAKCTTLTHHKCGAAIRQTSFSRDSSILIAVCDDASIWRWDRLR
Chain of wild type PRC2 (wtPRC2) complex (O75530 whole entry): as above
Chain of wild type PRC2 (wtPRC2) complex (Q15910 whole entry partner): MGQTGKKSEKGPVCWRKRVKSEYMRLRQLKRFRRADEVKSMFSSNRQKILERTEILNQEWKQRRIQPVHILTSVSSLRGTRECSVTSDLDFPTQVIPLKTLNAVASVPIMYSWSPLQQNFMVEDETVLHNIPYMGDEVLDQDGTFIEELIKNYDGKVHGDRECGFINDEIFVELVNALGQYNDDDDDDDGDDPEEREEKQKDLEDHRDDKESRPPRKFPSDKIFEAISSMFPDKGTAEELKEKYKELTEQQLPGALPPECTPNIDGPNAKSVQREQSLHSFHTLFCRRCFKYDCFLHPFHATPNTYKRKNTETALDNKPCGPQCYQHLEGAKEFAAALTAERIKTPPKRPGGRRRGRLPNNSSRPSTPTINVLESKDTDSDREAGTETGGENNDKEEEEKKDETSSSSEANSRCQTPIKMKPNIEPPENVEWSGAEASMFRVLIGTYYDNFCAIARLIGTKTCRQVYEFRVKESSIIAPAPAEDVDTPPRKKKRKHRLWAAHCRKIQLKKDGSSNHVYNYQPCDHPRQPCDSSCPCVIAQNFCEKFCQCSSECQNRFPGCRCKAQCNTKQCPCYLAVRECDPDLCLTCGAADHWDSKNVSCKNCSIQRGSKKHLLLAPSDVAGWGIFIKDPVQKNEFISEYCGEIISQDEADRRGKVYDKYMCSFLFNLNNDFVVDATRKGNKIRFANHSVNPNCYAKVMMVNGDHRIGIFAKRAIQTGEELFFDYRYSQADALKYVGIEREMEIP
Chain of wild type PRC2 (wtPRC2) complex (Q15022 whole entry partner): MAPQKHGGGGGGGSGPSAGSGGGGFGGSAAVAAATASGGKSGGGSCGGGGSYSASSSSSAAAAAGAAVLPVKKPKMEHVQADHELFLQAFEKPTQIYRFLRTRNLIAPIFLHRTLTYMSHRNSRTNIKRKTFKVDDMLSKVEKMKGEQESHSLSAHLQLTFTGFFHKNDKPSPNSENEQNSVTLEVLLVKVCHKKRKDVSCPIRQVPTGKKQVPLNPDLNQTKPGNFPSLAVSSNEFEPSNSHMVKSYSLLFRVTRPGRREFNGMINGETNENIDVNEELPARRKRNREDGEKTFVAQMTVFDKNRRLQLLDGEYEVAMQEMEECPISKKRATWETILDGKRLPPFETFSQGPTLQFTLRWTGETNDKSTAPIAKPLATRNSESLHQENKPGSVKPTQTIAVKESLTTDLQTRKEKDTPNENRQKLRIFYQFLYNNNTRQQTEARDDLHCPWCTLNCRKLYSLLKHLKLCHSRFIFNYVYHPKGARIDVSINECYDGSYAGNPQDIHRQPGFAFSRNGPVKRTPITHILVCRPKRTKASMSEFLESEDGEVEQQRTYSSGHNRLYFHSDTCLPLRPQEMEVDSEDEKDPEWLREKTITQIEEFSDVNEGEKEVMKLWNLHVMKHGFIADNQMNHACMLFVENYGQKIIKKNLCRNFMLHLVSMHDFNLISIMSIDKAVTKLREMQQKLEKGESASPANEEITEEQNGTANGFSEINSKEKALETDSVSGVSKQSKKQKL

Row | Compound | IC50 (EED (1-441)-His protein) [nM] | IC50 [1] [nM]
1 | CCc1ccc(-c2cnc(NCc3c(F)ccc4c3CCO4)n3cnnc23)c(C)n1 [Example 229, 8-(6-ethyl-2-methylpyridin-3-yl)-N-((5-fluoro-2,3-dihydrobenzofuran-4-yl)methyl)-[1,2,4]triazolo[4,3-c]pyrimidin-5-amine] | 5.9 | 6.7
2 | Cc1c(-c2cnc(NCc3c(F)ccc4c3CCO4)n3cnnc23)ccc[n+]1[O-] [Example 204, 3-(5-(((5-fluoro-2,3-dihydrobenzofuran-4-yl)methyl)amino)-[1,2,4]triazolo[4,3-c]pyrimidin-8-yl)-2-methylpyridine 1-oxide] | 10.6 | 19.3
3 | CC1CN(c2ccc(-c3cnc(NCc4cccc5c4CCO5)n4cnnc34)cn2)CC(C)O1 (centres unmarked) [Example 74, N-((2,3-dihydrobenzofuran-4-yl)methyl)-8-(6-(2,6-dimethylmorpholino)pyridin-3-yl)-[1,2,4]triazolo[4,3-c]pyrimidin-5-amine] | 89.6 | 139
4 | Cc1nc(OC(C)C)ncc1-c1cnc(NCc2c(F)ccc3c2CCO3)n2cnnc12 [Example 9, N-((5-fluoro-2,3-dihydrobenzofuran-4-yl)methyl)-8-(2-isopropoxy-4-methylpyrimidin-5-yl)-[1,2,4]triazolo[4,3-c]pyrimidin-5-amine] | 4.1 | 7.9
5 | CC1(C)COC(c2cncc(-c3cnc(NCc4cccc5c4CCO5)n4cnnc34)c2)=N1 [Example 90, N-((2,3-dihydrobenzofuran-4-yl)methyl)-8-(5-(4,4-dimethyl-4,5-dihydrooxazol-2-yl)pyridin-3-yl)-[1,2,4]triazolo[4,3-c]pyrimidin-5-amine] | 13.1 | 30.3
6 | Cc1noc(C)c1-c1cnc(NCc2c(F)ccc3c2CCO3)n2cnnc12 [Example 71, 8-(3,5-dimethylisoxazol-4-yl)-N-((5-fluoro-2,3-dihydrobenzofuran-4-yl)methyl)-[1,2,4]triazolo[4,3-c]pyrimidin-5-amine] | 9 | 18.9
7 | COCc1cc(-c2cnc(NCc3cccc4c3CCO4)n3cnnc23)cnc1C [Example 137, N-((2,3-dihydrobenzofuran-4-yl)methyl)-8-(5-(methoxymethyl)-6-methylpyridin-3-yl)-[1,2,4]triazolo[4,3-c]pyrimidin-5-amine] | 22 | 29.6
8 | CN(C)Cc1ccc(-c2cnc(NCc3c(F)ccc4c3CCO4)n3cnnc23)cc1 [Example 23, 8-(4-((dimethylamino)methyl)phenyl)-N-((5-fluoro-2,3-dihydrobenzofuran-4-yl)methyl)-[1,2,4]triazolo[4,3-c]pyrimidin-5-amine] | 31.1 | 25.7
9 | O=C(c1ccc(-c2cnc(NCc3cccc4occc34)n3cnnc23)cc1)N1CCCC1 [Example 216, (4-(5-((benzofuran-4-ylmethyl)amino)-[1,2,4]triazolo[4,3-c]pyrimidin-8-yl)phenyl)(pyrrolidin-1-yl)methanone] | 132 | 183
10 | Cc1nn(C)cc1-c1cnc(NCc2c(F)ccc3c2CCO3)n2cnnc12 [Example 195, 8-(1,3-dimethyl-1H-pyrazol-4-yl)-N-((5-fluoro-2,3-dihydrobenzofuran-4-yl)methyl)-[1,2,4]triazolo[4,3-c]pyrimidin-5-amine] | 5.9 | 11.6
11 | CN(C)CCc1ccc(-c2cnc(NCc3cccc4c3CCO4)n3cnnc23)cc1 [Example 35, N-((2,3-dihydrobenzofuran-4-yl)methyl)-8-(4-(2-(dimethylamino)ethyl)phenyl)-[1,2,4]triazolo[4,3-c]pyrimidin-5-amine] | 8.3 | 15.3
12 | COc1ccc(-c2cnc(NCc3cccc4c3CCO4)n3cnnc23)cn1 [Example 21, N-((2,3-dihydrobenzofuran-4-yl)methyl)-8-(6-methoxypyridin-3-yl)-[1,2,4]triazolo[4,3-c]pyrimidin-5-amine] | 25.2 | 26
13 | Cc1c(-c2cnc(NCc3c(F)ccc4c3CCO4)n3cnnc23)cnn1C(C)C [Example 188, N-((5-fluoro-2,3-dihydrobenzofuran-4-yl)methyl)-8-(1-isopropyl-5-methyl-1H-pyrazol-4-yl)-[1,2,4]triazolo[4,3-c]pyrimidin-5-amine] | 2.3 | 3.8
14 | c1cc(CNc2ncc(-c3ccc(N4CCSCC4)nc3)c3nncn23)c2c(c1)OCC2 [Example 81, N-((2,3-dihydrobenzofuran-4-yl)methyl)-8-(6-thiomorpholinopyridin-3-yl)-[1,2,4]triazolo[4,3-c]pyrimidin-5-amine] | 14.6 | 19.1
15 | CN(C)C(=O)CCc1ccc(-c2cnc(NCc3cccc4c3CCO4)n3cnnc23)cn1 [Example 135, 3-(5-(5-(((2,3-dihydrobenzofuran-4-yl)methyl)amino)-[1,2,4]triazolo[4,3-c]pyrimidin-8-yl)pyridin-2-yl)-N,N-dimethylpropanamide] | 5.7 | 11.2
16 | Cc1cn(-c2cnc(NCc3c(F)ccc4c3CCO4)n3cnnc23)cn1 [Example 233, N-((5-fluoro-2,3-dihydrobenzofuran-4-yl)methyl)-8-(4-methyl-1H-imidazol-1-yl)-[1,2,4]triazolo[4,3-c]pyrimidin-5-amine] | 3.9 | 11.5

Row | Compound | IC50 (EED (1-441)-His protein) [nM] | IC50 [1] [nM]
17 | O=C1CN(CCc2ccc(-c3cnc(NCc4cccc5c4CCO5)n4cnnc34)cn2)CCN1 [Example 109, 4-(2-(5-(5-(((2,3-dihydrobenzofuran-4-yl)methyl)amino)-[1,2,4]triazolo[4,3-c]pyrimidin-8-yl)pyridin-2-yl)ethyl)piperazin-2-one] | 8.8 | 13.7
18 | COCCn1nc(C)c(-c2cnc(NCc3cccc4c3CCO4)n3cnnc23)c1C [Example 66, N-((2,3-dihydrobenzofuran-4-yl)methyl)-8-(1-(2-methoxyethyl)-3,5-dimethyl-1H-pyrazol-4-yl)-[1,2,4]triazolo[4,3-c]pyrimidin-5-amine] | 15.6 | 44.7
19 | Cc1nc(F)ccc1-c1cnc(NCc2c(F)ccc3c2CCO3)n2cnnc12 [Example 164, N-((5-fluoro-2,3-dihydrobenzofuran-4-yl)methyl)-8-(6-fluoro-2-methylpyridin-3-yl)-[1,2,4]triazolo[4,3-c]pyrimidin-5-amine] | 4.2 | 13.9
20 | CS(=O)(=O)Nc1ccc(-c2cnc(NCc3cccc4c3CCO4)n3cnnc23)cc1 [Example 19, N-(4-(5-(((2,3-dihydrobenzofuran-4-yl)methyl)amino)-[1,2,4]triazolo[4,3-c]pyrimidin-8-yl)phenyl)methanesulfonamide] | 18.9 | 19.2
21 | COc1cc(-c2cnc(NCc3c(F)ccc4c3CCO4)n3cnnc23)ccn1 [Example 145, N-((5-fluoro-2,3-dihydrobenzofuran-4-yl)methyl)-8-(2-methoxypyridin-4-yl)-[1,2,4]triazolo[4,3-c]pyrimidin-5-amine] | 2.4 | 11.8
22 | CN(C)CCN(C)C(=O)c1ccc(-c2cnc(NCc3cccc4c3CCO4)n3cnnc23)cn1 [Example 102] | 33.9 | 68.8
23 | Clc1ccccc1-c1cnc(NCc2cccc3c2CCO3)n2cnnc12 [Example 32, 8-(2-chlorophenyl)-N-((2,3-dihydrobenzofuran-4-yl)methyl)-[1,2,4]triazolo[4,3-c]pyrimidin-5-amine] | 43.4 | 22.9
24 | Fc1ccc2c(c1CNc1ncc(-c3cccnc3C(F)F)c3nncn13)CCO2 [Example 168, 8-(2-(difluoromethyl)pyridin-3-yl)-N-((5-fluoro-2,3-dihydrobenzofuran-4-yl)methyl)-[1,2,4]triazolo[4,3-c]pyrimidin-5-amine] | 4.6 | 11.2
25 | Cc1cc(S(C)(=O)=O)ccc1-c1cnc(NCc2c(F)ccc3c2CCO3)n2cnnc12 [Example 128, N-((5-fluoro-2,3-dihydrobenzofuran-4-yl)methyl)-8-(2-methyl-4-(methylsulfonyl)phenyl)-[1,2,4]triazolo[4,3-c]pyrimidin-5-amine] | 8.6 | 16.5
26 | OCc1ncccc1-c1cnc(NCc2c(F)ccc3c2C(O)CO3)n2cnnc12 (centres unmarked) [Example 243, 5-fluoro-4-(((8-(2-(hydroxymethyl)pyridin-3-yl)-[1,2,4]triazolo[4,3-c]pyrimidin-5-yl)amino)methyl)-2,3-dihydrobenzofuran-3-ol] | 15.4 | 59
27 | Cc1nn(C)c(C)c1-c1cnc(NCc2cccc3c2CCO3)n2cnnc12 [Example 24, N-((2,3-dihydrobenzofuran-4-yl)methyl)-8-(1,3,5-trimethyl-1H-pyrazol-4-yl)-[1,2,4]triazolo[4,3-c]pyrimidin-5-amine] | 30.4 | 37
28 | Fc1ccc2c(c1CNc1ncc(-c3ccncc3Cl)c3nncn13)CCO2 [Example 162, 8-(3-chloropyridin-4-yl)-N-((5-fluoro-2,3-dihydrobenzofuran-4-yl)methyl)-[1,2,4]triazolo[4,3-c]pyrimidin-5-amine] | 5.7 | 21.1
29 | CS(=O)(=O)CCOc1ccc(-c2cnc(NCc3cccc4c3CCO4)n3cnnc23)cc1 [Example 75, N-((2,3-dihydrobenzofuran-4-yl)methyl)-8-(4-(2-(methylsulfonyl)ethoxy)phenyl)-[1,2,4]triazolo[4,3-c]pyrimidin-5-amine] | 34 | 37.5
30 | CN(C)C(=O)c1cccc(-c2cnc(NCc3cccc4c3CCO4)n3cnnc23)c1 [Example 43, 3-(5-(((2,3-dihydrobenzofuran-4-yl)methyl)amino)-[1,2,4]triazolo[4,3-c]pyrimidin-8-yl)-N,N-dimethylbenzamide] | 30.9 | 33.1
31 | Fc1ccncc1-c1cnc(NCc2c(F)ccc3c2CCO3)n2cnnc12 [Example 47, N-((5-fluoro-2,3-dihydrobenzofuran-4-yl)methyl)-8-(4-fluoropyridin-3-yl)-[1,2,4]triazolo[4,3-c]pyrimidin-5-amine] | 5.2 | 4.9
